Assay results: patent publication US5840752A, “Reduction of hair growth” (priority 1996, dated 1998)

What was measured:
[1] = tested on: hair growth of hamster flank organs; assay: Golden Syrian hamster assay (flank organ hair mass); format: in vivo; details: topical, thirteen applications; for Hair Mass (mg) ± SEM, Treated: 10 μl once a day; for % Reduction (of hair growth): vs vehicle treated side
From the text: Male intact Golden Syrian hamsters are considered acceptable models for human beard hair growth in that they display oval shaped flank organs, one on each side, each about 8 mm. in major diameter, which grow thick black and coarse hair similar to human beard hair. These organs produce hair in response to androgens in the hamster. To evaluate the effectiveness of a composition including an inhibitor of a cholesterol synthetic pathway enzyme, the flank organs of each of a group of hamsters are depilated by applying a thioglycolate based chemical depilatory (Surgex) and/or shaved. To one organ of each animal 10 μl. of vehicle alone once a day is applied, while to the other organ of each animal an equal amount of vehicle containing an inhibitor of a cholesterol synthetic pathway enzyme is applied. After thirteen applications (one application per day for five days a week), the flank organs are shaved and the amount of recovered hair (hair mass) from each is weighed. Percent-reduction of hair growth is calculated by subtracting the hair mass (mg) value of the test compound treated side from the hair mass value of the vehicle treated side; the delta value obtained is then divided by the hair mass value of the vehicle treated side, and the resultant number is multiplied by 100.
The above-described assay will be referred to herein as the "Golden Syrian hamster" assay.

HMG CoA reductase = assay: HMGCoA reductase assay in extracts of hair follicles from hamster flank organ; format: biochemical; details: tested at 14 μM, 1 hour incubation
[2] = dose 10%, Vehicle A (40% acetone, 40% dipropylene glycol, 20% dimethyl sulfoxide)
[3] = dose 5%, Vehicle B (100% dimethyl sulfoxide)
[4] = dose 10%, Vehicle C (85% dimethyl sulfoxide, 10% benzyl alcohol, 5% NMP)
[5] = dose 5%, Vehicle C (85% dimethyl sulfoxide, 10% benzyl alcohol, 5% NMP)

SMILES: CC[C@H](C)C(=O)O[C@H]1C[C@@H](C)C=C2C=C[C@H](C)[C@H](CC[C@@H]3C[C@@H](O)CC(=O)O3)[C@H]21 [Lovastatin, 1S-[1S-[1α(R*),3α,7β,8β(2S*,4S*),8αβ]]-1,2,3,7,8,8a-hexahydro-3,7-dimethyl-8-[2-(tetrahydro-4-hydroxy-6-oxo-2H-pyran-2-yl)ethyl]-1-naphthalenyl 2-methylbutanoate]
- Hair Mass (mg) ± SEM, Treated [1, 2]: 0.81 ± 0.13 mg
- % Reduction (of hair growth) [1, 2]: 63±4%

SMILES: CC[C@H](C)C(=O)O[C@H]1CCC=C2C=C[C@H](C)[C@H](CC[C@@H]3C[C@@H](O)CC(=O)O3)[C@H]21 [Mevastatin, mevastatin]
- Hair Mass (mg) ± SEM, Treated [1, 3]: 1.09 ± 0.07 mg
- % Reduction (of hair growth) [1, 3]: 19 ± 7%

SMILES: CC(C)CCC[C@@H](C)[C@H]1CC[C@H]2[C@@H]3C(=O)C=C4C[C@@H](O)CC[C@]4(C)[C@H]3CC[C@]12C [7-Ketocholesterol, 5-cholesten-3β-Ol-7-one]
- Hair Mass (mg) ± SEM, Treated [1, 4]: 1.01 ± 0.1 mg
- % Reduction (of hair growth) [1, 4]: 54 ± 7%

SMILES: CCC(C)(C)C(=O)O[C@H]1C[C@@H](C)C=C2C=C[C@H](C)[C@H](CC[C@@H]3C[C@@H](O)CC(=O)O3)[C@H]21 (relative stereo) [Simivistatin, 1S-[1α,3α,7β,8β(2S*,4S*),8aβ]]-1,2,3,7,8,8a-hexahydro-3,7-dimethyl-8-[2-tetrahydro-4-hydroxy-6-oxo-2H-pyran-2-yl)ethyl]-1-napthalenyl-2,2-dimethyl-butanoic acid]
- Hair Mass (mg) ± SEM, Treated [1, 2]: 0.60 ± 0.11 mg
- % Reduction (of hair growth) [1, 2]: 61 ± 7%
- inhibition of HMG CoA reductase activity (HMG CoA reductase): 100%

SMILES: C[C@H](CCCC(C)(C)O)[C@H]1CC[C@H]2[C@@H]3CC=C4C[C@@H](O)CC[C@]4(C)[C@H]3CC[C@]12C [25-Hydroxycholesterol, 25-hydroxycholesterol]
- Hair Mass (mg) ± SEM, Treated [1, 5]: 1.04 ± 0.10 mg
- % Reduction (of hair growth) [1, 5]: 17 ± 9%
